We go through one molecule from ChEMBL document CHEMBL5346907, “Discovery of a novel oral type Ⅰ CDK8 inhibitor against acute myeloid leukemia” (Eur J Med Chem, 2023).

The structures appear in SMILES notation.

Assay type in all cases: functional
The test system of one test is MDA-MB-231. The test is described as follows: Antiproliferative activity against human MDA-MB-231 cells incubated for 48 hrs by CCK8 assay.
A further test has as its system A549. The test is described as follows: Antiproliferative activity against human A549 cells incubated for 48 hrs by CCK8 assay. A general note: Tetrazolium dyes change colour on reduction, which living cells bring about.
Another test concerns MGC-803. The test is described as follows: Antiproliferative activity against human MGC-803 cells incubated for 48 hrs by CCK8 assay.
The next test has as its system GES1. In words: Antiproliferative activity against human GES1 cells incubated for 48 hrs by CCK8 assay.
A further test has as its system MV4-11. In words: Antiproliferative activity against human MV4-11 cells incubated for 48 hrs by CCK8 assay.
The test system of a further test is MOLM-13. In words: Antiproliferative activity against human MOLM-13 cells incubated for 48 hrs by CCK8 assay.
In a further test the test system is A-375. In words: Antiproliferative activity against human A-375 cells incubated for 48 hrs by CCK8 assay.

As for `Cc1c(Br)c(Br)c2c3c1nc(N1CCNCC1)n3CCC2` [SEL-120 FREE BASE], the GI50 came to 9.6 µM with MDA-MB-231; 12.1 µM in the test on A549; 16.3 µM in the test on MGC-803; 55.3 µM with GES1; 0.07 µM in the test on MV4-11; 0.02 µM in the test on MOLM-13. The same molecule gave a GI50 with A-375 of 5.9 µM.

Usually GI50 stands for the concentration at which growth is held to half of that of the control.
